Key:
[1] = system: Porcine smooth muscle cells (PSMC); assay: Mitogenic assay on PSMC (cell count); assay type: cell-based; details: for inhibition of PSMC proliferation mediated by FBS: 17βE 10^−7M, 72 h
Procedure: Confluent PAEC and PSMC were rinsed with DMEM and trypsinized. Cells were resuspended in 10 ml of DMEM, 5% FBS, and antibiotics, and a cell count was obtained with a Coulter Counter Z1 (Coulter Electronics, Luton, UK). PAEC and PSMC were seeded at 1×10^4 cells/well of 24-well tissue culture plates (Becton-Dickinson, Rutherford, N.J., U.S.A.) stimulated for 24 h in DMEM, 5% FBS, and antibiotics, and starved for 48 h in DMEM, 0.1% FBS, and antibiotics. […] After trypsinization, cell number was determined by using a Coulter counter.
Confluent PAEC and PSMC were rinsed with DMEM and trypsinized. Cells were resuspended in 10 mL of DMEM, 5% FBS, and antibiotics, and a cell count was obtained. PAEC and PSMC were initially seeded at 1×10^4cells/well of 24-well tissue culture plates stimulated for 24 hours in DMEM, 5% FBS, and antibiotics with or without antisense oligomers (10^−6 mol/L), and starved for 48 hours in DMEM, 0.1% FBS, and antibiotics with or without antisense oligomers (10^−6 mol/L daily) for G0 synchronization. Initial cell number for growth was determined using a Coulter counter. The cells were stimulated for 72 hours in DMEM, 1% FBS, antibiotics with or without antisense oligomers (10^−6 mol/L daily) and with or without of 17βE (Sigma). After trypsinization, cell number was determined by using a Coulter counter.

[2] = system: Porcine smooth muscle cells (PSMC); assay: Chemotactic assay on PSMC (modified Boyden chamber); assay type: cell-based; details: for reversal of the anti-chemotactic effect of 17βE on PSMC: antagonist 10^−7M before 17βE 10^−8M, PDGF-BB 10 ng/ml
Procedure: Cell migration was evaluated using a modified Boyden 48-well microchamber kit (NeuroProbe, Cabin John, MD.). Near confluent EC and PSMC were rinsed with DMEM and trypsinized. Cells were resuspended in DMEM, 5% FBS, and antibiotics, and a cell count was obtained. […] ER antagonists were added 5 minutes before 17βE. Cells were harvested by trypsinization and resuspended in DMEM, 1% FBS, and antibiotics at a concentration of 5×10^5 cells/ml. […] The two sections of the system were separated by a porous polycarbonate filter (5-μm pores), pre-treated with a gelatine solution (1.5 mg/ml), and assembled. Five hours post incubation at 37° C., the nonmigrated cells were scraped with a plastic policeman, and the migrated cells were stained using a Quick-Diff solution. The filter was then mounted on a glass slide, and migrated cells were counted using a microscope adapted to a video camera to obtain a computer-digitized image.
Cell migration was evaluated using a modified Boyden 48-well microchamber kit (NeuroProbe, Cabin John, MD.). Near confluent PAEC and PSMC were rinsed with DMEM and trypsinized. Cells were resuspended in DMEM, 5% FBS, and antibiotics, and a cell count was obtained. PAEC and PSMC were seeded at 2.5×10^5 cells/well of 6-well tissue culture plates; stimulated for 24 hours in DMEM, 5% FBS, and antibiotics with or without antisense oligomers (10^−6 mol/L) and starved for 48 hours in DMEM, 0.1% FBS, and antibiotics with or without antisense oligomers (10^−6 mol/L daily) with or without 17βE (10^−8 mol/L). Cells were harvested by trypsinization and resuspended in DMEM, 1% FBS, and antibiotics at a concentration of 5×10^5 cells/mL. Fifty μL of this cell suspension with or without antisense oligomers (10^−6 mol/L) treated with or without 17βE (10^−8 mol/L) was added in the higher-chamber of the modified Boyden chamber apparatus, and the lower chamber was filled with DMEM, 1% FBS, antibiotics plus the desired concentration of agonist either 17βE (10^−8 mol/L) or platelet-derived growth factor-BB (PDGF-BB). The 2 sections of the system were separated by a porous polycarbonate filter (5-μm pores size), pretreated with a gelatine solution (1.5 mg/mL), and assembled. Five hours postincubation at 37° C., the non-migrated cells were scraped with a plastic policeman, and the migrated cells were stained using a Quick-Diff solution (Shandon Inc). The filter was then mounted on a glass slide, and migrated cells were counted using a microscope adapted to a video camera to obtain a computer-digitized image.

O=C(c1ccc(OCN2CCCCC2)cc1)c1c(-c2ccc(O)cc2)sc2cc(O)ccc12 [Ral, Raloxifen]
reversal of the anti-mitogenic activity of 17βE on PSMC ([1]; Rai 10^−1M as printed, 17βE 10^−8M, FBS 1%): 100%
reversal of the anti-chemotactic effect of 17βE on PSMC [2]: reversed completely

CC/C(=C(\c1ccccc1)c1ccc(OCCN(C)C)cc1)c1ccccc1 [Tam, Tamoxifen]
reversal of the anti-mitogenic activity of 17βE on PSMC ([1]; Tam 10^−7M, 17βE 10^−8M, FBS 1%): 75%
reversal of the anti-chemotactic effect of 17βE on PSMC [2]: reversed completely

CC/C(=C(\c1ccc(O)cc1)c1ccc(OCCN(C)C)cc1)c1ccccc1 [4-OHT, 4-OH-Tamoxifen]
reversal of the anti-mitogenic activity of 17βE on PSMC ([1]; 4-OHT 10^−8M and 10^−7M, 17βE 10^−8M, FBS 1%): 81%
reversal of the anti-chemotactic effect of 17βE on PSMC [2]: reversed completely

C[C@]12CC[C@@H]3c4ccc(O)cc4CC[C@H]3[C@@H]1CC[C@@H]2O [17βE, 17-beta-estradiol]
inhibition of PSMC proliferation mediated by FBS ([1]; FBS 1%): 88%
inhibition of PSMC proliferation mediated by FBS ([1]; FBS 5%): 90%
inhibition of FBS 1% mitogenic activity on PSMC ([1]; 17βE 10^−8M, Example 1): inhibited completely
prevention of PSMC proliferation mediated by FBS 1% ([1]; 17βE 10^−8 mol/L, Example 2): 95%
inhibition of the chemotactic effect of PDGF-BB (10 ng/mL) on PSMC ([2]; 17βE 1^−8 mol/L as printed, Example 2): inhibited completely
inhibition of the chemotactic effect of PDGF-BB (10 ng/ml) on PSMC ([2]; 17βE 10^−8M, Example 1): inhibited completely

— US7235534B2, “Antisense strategy to modulate estrogen receptor response (ER α and/or ER β )” (Institut de Cardiologie de Montreal, priority 2001, dated 2007)
